Source: patent EP4786464A1, “COMPOUND AS GLUTAMINE CYCLASE INHIBITOR” (Simcere Pharmaceutical Co., Ltd., priority 2023, dated 2025)

Tests used:
human QPCT = target: T1, human QPCT (Homo sapiens, UniProt Q16769); test: Inhibition of human QPCT enzyme activity (SensoLyte Green Glutaminyl Cyclase Activity Assay Kit); format: biochemical; conditions: fluorescence Ex/Em = 490 nm/520 nm
T1 construct: purchased Anaspec AS-72230
Protocol: (§1) The inhibition of human QPCT/QPCTL enzyme activity by the compounds was assessed using SensoLyte® Green Glutaminyl Cyclase Activity Assay Kit.
(§2) The working solutions of the test compounds were serially 6-fold diluted from an initial concentration of 200 µM to 7 concentration points in total. In the 75 µL reaction system, the initial working concentration of the test compound was 13.3 µM, and the final concentration of DMSO was 0.3%. 20 µL of prepared QPCT enzyme solution, 5 µL of test compound, and 25 µL of QPCT enzyme substrate were successively added to each well of a 384-well plate. The mixture was shaken on a microplate shaker for 1 min, centrifuged at 400 g for 1 min, and incubated at 37 °C for 30 min. Then, 25 µL of QPCT developer was added to each well, and the mixture was sufficiently mixed using a shaker for 1 min, centrifuged at 400 g for 1 min, and incubated at 37 °C for another 60 min. After the incubation was completed, the fluorescence values were read using a microplate reader, with parameter settings as follows: Ex/Em = 490 nm/520 nm. […] Curves were plotted using GraphPad Prism 9 software with the compound concentration (nM) as the abscissa and the enzyme activity inhibition rate (%) as the ordinate. Four-parameter fitting was performed, and the IC50 values for the inhibition of the QPCT enzyme activity by the compounds were calculated.

human QPCTL = target: T2, human QPCTL (Homo sapiens, UniProt Q9NXS2); test: Inhibition of human QPCTL enzyme activity (adjusted SensoLyte Green Glutaminyl Cyclase Activity Assay Kit); format: biochemical; conditions: human QPCTL enzyme (Sino Biological)
T2 construct: purchased Sino Biological NXS6-1
T2 sequence (Q9NXS2 whole entry): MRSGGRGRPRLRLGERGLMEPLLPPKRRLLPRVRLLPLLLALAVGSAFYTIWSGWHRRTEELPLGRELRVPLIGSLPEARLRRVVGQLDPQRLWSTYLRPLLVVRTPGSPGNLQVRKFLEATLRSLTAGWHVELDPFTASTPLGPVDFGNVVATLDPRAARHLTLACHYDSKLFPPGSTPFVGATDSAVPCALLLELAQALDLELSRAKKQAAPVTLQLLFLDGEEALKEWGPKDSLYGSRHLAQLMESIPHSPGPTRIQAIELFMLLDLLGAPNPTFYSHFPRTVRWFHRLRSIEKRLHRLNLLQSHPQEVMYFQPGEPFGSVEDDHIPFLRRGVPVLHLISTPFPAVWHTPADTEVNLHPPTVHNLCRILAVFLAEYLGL
Protocol: as §1
as §2, with “0.5 mM QPCT enzyme substrate was diluted to 5 µM with a buffer at a ratio of 1:100; 50 µg/mL QPCT enzyme was diluted to 125 ng/mL with a buffer and placed on ice for later use; QPCT developer was diluted with a buffer at a ratio of 1:250 and placed on ice for later use (the QPCT enzyme substrate, the QPCT enzyme, the buffer, and the QPCT developer were all from the kit). The working” for “The working”
The SensoLyte® Green Glutaminyl Cyclase Activity Assay Kit was appropriately adjusted by replacing the QPCT enzyme in it with human QPCTL enzyme (Sino Biological, Cat. No. NXS6-1) (the concentration of the working solution was kept unchanged) for determining the IC50 values for the inhibition of human QPCTL enzyme activity by compounds. […]

CYP2D6 = target: T3, CYP2D6 (Homo sapiens, UniProt P10635); test: Inhibition of CYP2D6 enzyme activity in liver microsomes; format: in vitro ADME; conditions: substrate dextromethorphan, 15 min
T3 construct: 1 µL of 20 mg/mL liver microsome solution; from tissue; host or cells: liver microsomes
T3 sequence (P10635 whole entry): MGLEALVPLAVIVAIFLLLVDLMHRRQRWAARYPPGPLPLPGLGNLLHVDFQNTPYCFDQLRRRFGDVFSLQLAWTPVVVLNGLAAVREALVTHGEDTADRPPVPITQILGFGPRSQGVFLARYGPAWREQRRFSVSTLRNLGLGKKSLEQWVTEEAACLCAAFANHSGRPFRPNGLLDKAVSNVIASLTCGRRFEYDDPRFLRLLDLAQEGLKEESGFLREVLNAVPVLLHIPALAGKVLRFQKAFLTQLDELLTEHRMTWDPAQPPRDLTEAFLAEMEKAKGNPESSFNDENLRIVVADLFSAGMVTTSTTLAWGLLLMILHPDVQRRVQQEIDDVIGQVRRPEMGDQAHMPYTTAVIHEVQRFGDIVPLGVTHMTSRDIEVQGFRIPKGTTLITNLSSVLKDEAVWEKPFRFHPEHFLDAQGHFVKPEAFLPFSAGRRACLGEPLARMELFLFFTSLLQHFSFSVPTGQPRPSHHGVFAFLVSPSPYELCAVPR

CYP3A4 = target: T4, CYP3A4 (Homo sapiens, UniProt P08684); test: Inhibition of CYP3A4 enzyme activity in liver microsomes; format: in vitro ADME; conditions: substrate midazolam, 15 min
T4 construct: 1 µL of 20 mg/mL liver microsome solution; from tissue; host or cells: liver microsomes
T4 sequence (P08684 whole entry): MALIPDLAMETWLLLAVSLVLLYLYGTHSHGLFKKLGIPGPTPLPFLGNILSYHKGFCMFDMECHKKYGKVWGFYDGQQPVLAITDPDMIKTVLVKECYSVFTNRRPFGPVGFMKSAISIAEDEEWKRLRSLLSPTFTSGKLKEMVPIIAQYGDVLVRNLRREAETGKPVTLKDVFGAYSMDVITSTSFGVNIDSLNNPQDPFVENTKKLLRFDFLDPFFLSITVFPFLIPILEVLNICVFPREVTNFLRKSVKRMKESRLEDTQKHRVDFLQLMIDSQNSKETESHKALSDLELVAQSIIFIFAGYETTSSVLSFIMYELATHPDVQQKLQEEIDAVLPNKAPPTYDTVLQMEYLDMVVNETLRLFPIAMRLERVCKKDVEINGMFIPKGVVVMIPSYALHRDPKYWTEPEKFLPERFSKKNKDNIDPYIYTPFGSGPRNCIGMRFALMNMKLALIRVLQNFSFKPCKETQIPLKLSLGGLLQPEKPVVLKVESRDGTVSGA

CYP2C9 = target: T5, CYP2C9 (Homo sapiens, UniProt P11712); test: Inhibition of CYP2C9 enzyme activity in liver microsomes; format: in vitro ADME; conditions: substrate diclofenac, 15 min
T5 construct: 1 µL of 20 mg/mL liver microsome solution; from tissue; host or cells: liver microsomes
T5 sequence (P11712 whole entry): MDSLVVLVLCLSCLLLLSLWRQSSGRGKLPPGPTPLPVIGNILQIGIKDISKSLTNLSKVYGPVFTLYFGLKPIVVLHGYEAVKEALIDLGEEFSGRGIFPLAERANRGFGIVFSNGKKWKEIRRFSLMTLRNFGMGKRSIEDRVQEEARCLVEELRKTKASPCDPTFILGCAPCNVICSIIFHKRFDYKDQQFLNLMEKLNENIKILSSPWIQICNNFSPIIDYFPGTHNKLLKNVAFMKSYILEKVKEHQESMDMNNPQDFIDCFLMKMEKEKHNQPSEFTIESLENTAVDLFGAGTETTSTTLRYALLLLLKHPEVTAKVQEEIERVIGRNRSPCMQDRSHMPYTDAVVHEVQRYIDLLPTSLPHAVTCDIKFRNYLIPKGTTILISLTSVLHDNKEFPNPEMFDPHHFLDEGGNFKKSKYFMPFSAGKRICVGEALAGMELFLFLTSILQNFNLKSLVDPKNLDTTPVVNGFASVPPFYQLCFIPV

[1] = Metabolic stability in liver microsomes (mouse); format: in vitro ADME; conditions: pH 7.4; mouse liver microsomes 0.5 mg/mL, 1 µM compound, 1 mM NADPH; read-out: Half-life (t1/2, min) (mouse)
Protocol: (§3) The experimental procedures were as follows: 1. […] 2. Preparation of reaction system The reaction system was prepared as follows:
(§4) 3. The reaction system was pre-incubated in a 37 °C water bath for 10 min. 20 µL of 10 mM NADPH solution (NADPH was dissolved by 100 mM phosphate-buffered saline) was added to the reaction system with a final concentration of NADPH being 1 mM. 20 µL phosphate-buffered saline was used instead of the NADPH solution to serve as the negative control. The negative control was used to exclude the effect of chemical stability of the compound itself. 4. The reaction was initiated by adding 2 µL of 100 µM compound of the present disclosure and verapamil, the positive control compound, to the reaction system with a final concentration of the compound being 1 µM. 5.
(§5) All data were calculated using Microsoft Excel software. The peak area was obtained by extracting an ion chromatogram.

[2] = Metabolic stability in liver microsomes (human); format: in vitro ADME; conditions: pH 7.4; human liver microsomes 0.5 mg/mL, 1 µM compound, 1 mM NADPH; read-out: Half-life (t1/2, min) (human)
Protocol: as §3, §4, §5

T1 sequence (Q16769 29-361): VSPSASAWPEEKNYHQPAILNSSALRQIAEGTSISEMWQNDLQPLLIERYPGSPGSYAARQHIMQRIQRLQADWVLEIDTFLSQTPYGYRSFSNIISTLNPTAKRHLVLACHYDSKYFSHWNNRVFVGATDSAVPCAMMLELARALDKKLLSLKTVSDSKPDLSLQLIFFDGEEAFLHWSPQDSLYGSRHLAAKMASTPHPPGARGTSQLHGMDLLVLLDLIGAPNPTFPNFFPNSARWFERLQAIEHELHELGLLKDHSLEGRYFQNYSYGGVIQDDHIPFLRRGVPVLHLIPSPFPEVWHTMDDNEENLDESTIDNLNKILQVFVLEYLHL

SMILES | IC50 (human QPCT) | further results
O=C1C[C@H](C23CC(F)(C2)C3)N1c1ccc2[nH]cnc2c1 [Compound 2] | 170 nM | 
CCCOC12CC([C@H]3CC(=O)N3c3ccc4[nH]cnc4c3)(C1)C2 [Compound 3] | 52.4 nM | IC50 (human QPCTL): 6.5 nM
COC12CC([C@H]3CC(=O)N3c3ccc4[nH]cnc4c3)(C1)C2 [Compound 8] | 166 nM | 
O=C1C[C@H](C23CC(CF)(C2)C3)N1c1ccc2nc[nH]c2c1 [Compound 10] | 58.9 nM | 
[2H][C@]1(C23CC(C2)C3)CC(=O)N1c1ccc2[nH]cnc2c1 [Compound 11] | 42.5 nM | 
O=C1C[C@H](C23CC(Cl)(C2)C3)N1c1ccc2[nH]cnc2c1 [Compound 13] | 73.2 nM | 

Molecules with a lower IC50 (human QPCT), results first:

IC50 (human QPCT) | SMILES | further results
10.7 nM | O=C1C[C@H](C23CC(c4ccc(F)cc4)(C2)C3)N1c1ccc2[nH]cnc2c1 [Compound 4] | IC50 (human QPCTL): 3.9 nM
8.5 nM | O=C1C[C@H](C23CC(c4ccncc4)(C2)C3)N1c1ccc2[nH]cnc2c1 [Compound 5] | 
19.1 nM | N#Cc1ccc(C23CC([C@H]4CC(=O)N4c4ccc5[nH]cnc5c4)(C2)C3)cc1 [Compound 6] | 
36.8 nM | O=C1C[C@H](C23CC(N4CCOCC4)(C2)C3)N1c1ccc2[nH]cnc2c1 [Compound 7] | IC50 (CYP2D6): > 50000 nM; IC50 (CYP3A4): > 50000 nM; IC50 (CYP2C9): > 50000 nM; half-life at 1 µM [1]: 325 min; IC50 (human QPCTL): 25.1 nM; half-life at 1 µM [2]: 316 min
37.3 nM | CC12CC([C@H]3CC(=O)N3c3ccc4nc[nH]c4c3)(C1)C2 [Compound 9] | 
